Data taken from ChEMBL document CHEMBL1268970, “Development of novel inhibitors targeting HIF-1α towards anticancer drug discovery” (Bioorg Med Chem Lett, 2010).
Activity calls are given as the source filed them. The rule behind the calls is not given here.

Assays:
[1] = target: T1, Hypoxia-inducible factor 1-alpha (Homo sapiens, UniProt Q16665); assay: Inhibition of HIF1alpha in human U251 cells under hypoxic condition by luciferase reporter gene assay; type: cell-based, U-251
Target sequence in this assay (Q16665 whole entry): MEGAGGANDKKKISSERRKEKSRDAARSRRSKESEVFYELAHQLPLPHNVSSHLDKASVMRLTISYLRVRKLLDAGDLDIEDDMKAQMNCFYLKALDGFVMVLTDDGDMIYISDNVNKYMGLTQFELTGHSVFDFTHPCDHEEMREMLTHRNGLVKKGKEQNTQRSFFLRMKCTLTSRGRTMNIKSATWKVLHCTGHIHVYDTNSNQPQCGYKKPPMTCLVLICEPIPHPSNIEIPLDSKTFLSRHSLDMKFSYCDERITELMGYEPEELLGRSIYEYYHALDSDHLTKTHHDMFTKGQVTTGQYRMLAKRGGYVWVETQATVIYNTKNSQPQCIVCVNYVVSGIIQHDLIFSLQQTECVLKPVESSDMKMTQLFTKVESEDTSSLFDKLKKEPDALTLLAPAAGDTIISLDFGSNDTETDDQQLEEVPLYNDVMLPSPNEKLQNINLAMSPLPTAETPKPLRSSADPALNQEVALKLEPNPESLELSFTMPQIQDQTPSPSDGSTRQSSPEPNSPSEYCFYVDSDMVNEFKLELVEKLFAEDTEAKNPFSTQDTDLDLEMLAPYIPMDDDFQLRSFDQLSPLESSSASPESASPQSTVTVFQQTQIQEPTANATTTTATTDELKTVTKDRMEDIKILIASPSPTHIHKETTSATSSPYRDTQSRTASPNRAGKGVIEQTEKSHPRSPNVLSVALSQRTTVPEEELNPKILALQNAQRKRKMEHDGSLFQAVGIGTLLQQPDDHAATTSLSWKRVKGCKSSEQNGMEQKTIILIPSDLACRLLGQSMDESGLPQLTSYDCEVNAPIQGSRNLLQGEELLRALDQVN

[2] = target: T1, Hypoxia-inducible factor 1-alpha; assay: Inhibition of HIF1alpha in human U251 cells under normoxic condition by luciferase reporter gene assay; type: cell-based, U-251
Target sequence in this assay (Q16665 whole entry): as above

[3] = test system: PANC-1; assay: Antiproliferative activity against human PANC1 cells by [3H]thymidine incorporation assay; type: functional, cell-based
[4] = test system: HCT-116; assay: Antiproliferative activity against human HCT116 cells by [3H]thymidine incorporation assay; type: functional, cell-based
[5] = test system: PC-3; assay: Inhibition of HIF1alpha expression in human PC3 cells by Western blot analysis; type: functional, cell-based
[6] = test system: Mus musculus; assay: Toxicity in SCID mouse xenografted with human PC3 cells assessed as weight loss at 50 mg/kg, po BID for 19 days measured on day 25; type: organism-based, PC-3; design: dose 50 mg/kg, route oral; conditions: in vivo, 456 h
[7] = Antiproliferative activity against human WI38 cells by [3H]thymidine incorporation assay; type: cell-based; conditions: WI-38
[8] = test system: HUVEC; assay: Antiangiogenic activity in HUVEC assessed as inhibition of tube formation; type: functional, cell-based; conditions: Homo sapiens
[9] = target: T1, Hypoxia-inducible factor 1-alpha; assay: Inhibition of HIF1-alpha-mediated VEGF mRNA expression in human PC3 cells under hypoxic condition by RT-PCR analysis; type: cell-based; conditions: PC-3
Target sequence in this assay (Q16665 whole entry, looked up): as the sequence (Q16665 whole entry) above

[10] = test system: PC-3; assay: Antitumor activity against human PC3 cells xenografted in SCID mouse assessed as tumor growth inhibition at 50 mg/kg, po BID for 19 days measured on day 20; type: functional, organism-based; design: dose 50 mg/kg
[11] = test system: PC-3; assay: Antiproliferative activity against human PC3 cells by [3H]thymidine incorporation assay; type: functional, cell-based
[12] = test system: OVCAR-3; assay: Antiproliferative activity against human OVCAR-3 cells by [3H]thymidine incorporation assay; type: functional, cell-based; conditions: OVCAR-3, 3 h
[13] = test system: U-251; assay: Antiproliferative activity against human U251 cells by [3H]thymidine incorporation assay; type: functional, cell-based
[14] = test system: MRC5; assay: Antiproliferative activity against human MRC5 cells by [3H]thymidine incorporation assay; type: cell-based
[15] = test system: DU-145; assay: Antiproliferative activity against human DU145 cells by [3H]thymidine incorporation assay; type: functional, cell-based
[16] = test system: U-251; assay: Inhibition of HIF1alpha expression in human U251 cells by Western blot analysis; type: functional, cell-based

Row | SMILES | IC50 [1] [µM] | IC50 [2] [µM] | also measured
1 | Nc1ccc(-c2nc(O)cc(CCl)n2)nc1 | 6 | 22 | –
2 | CCc1c(C)nc(-c2ccc(N)cn2)nc1O | > 30 | – | –
3 | CCOc1cc(C(F)(F)F)nc(-c2ccc(NC(=O)CCl)cn2)n1 | 8 | – | –
4 | C=CCOc1nc(-c2ccc(N)cn2)nc(C)c1Cl | > 30 | – | –
5 | Cc1nc(-c2ccc(N)cn2)nc(O)c1F | > 30 | – | –
6 | C=CCOc1cc(C(F)(F)F)nc(-c2ccc(N)cn2)n1 | > 30 | – | –
7 | O=C(CCl)Nc1ccc(-c2nc(O)cc(C(F)(F)F)n2)nc1 | 0.8 | 8 | IC50 [3]: 2000 nM; IC50 [4]: 800 nM; inhibition [5]: Dose-dependent effect; Activity [6]: Non-toxic; IC50 [7]: 6.5 µM; inhibition [8]: Dose-dependent effect; inhibition [9]: Dose-dependent effect; growth inhibition (GI) [10]: Active; IC50 [11]: 1000 nM; IC50 [12]: 3.5 µM; IC50 [13]: 1500 nM; IC50 [14]: > 10 µM; IC50 [15]: 1200 nM; inhibition [16]: Dose-dependent effect
8 | C=CCOc1nc(-c2ccc(NC(=O)CCl)cn2)nc(C)c1CC | 1.8 | 22 | –
9 | O=C(CCl)Nc1ccc(-c2nc(Cl)cc(C(F)(F)F)n2)nc1 | 1.4 | 10 | –
10 | COc1cc(C(F)(F)F)nc(-c2ccc(N)cn2)n1 | > 30 | – | –
11 | CCc1c(C)nc(-c2ccc(NC(=O)CCl)cn2)nc1O | 1.5 | 5.5 | –
12 | CCOc1cc(C(F)(F)F)nc(-c2ccc(N)cn2)n1 | > 30 | – | –
13 | CC[C@@]1(O)C(=O)OCc2c1cc1n(c2=O)Cc2cc3c(CN(C)C)c(O)ccc3nc2-1 [TOPOTECAN] | – | – | IC50 [11]: 1000 nM; IC50 [13]: 500 nM; IC50 [15]: 1200 nM
14 | COc1cc(C(F)(F)F)nc(-c2ccc(NC(=O)CCl)cn2)n1 | 3.5 | 15 | –
15 | O=C(Nc1ccc(-c2nc(O)cc(C(F)(F)F)n2)nc1)C(F)(F)Cl | > 30 | – | –
16 | Cc1nc(-c2ccc(NC(=O)CCl)cn2)nc(O)c1C | > 30 | – | –
17 | Cc1nc(-c2ccc(N)cn2)nc(O)c1C | > 30 | – | –
18 | C=CCOc1nc(-c2ccc(N)cn2)nc(C)c1CC | > 30 | – | –
19 | Cc1nc(-c2ccc(NC(=O)CCl)cn2)[nH]c(=O)c1Cl | 5.5 | – | –
20 | C=CCOc1nc(-c2ccc(NC(=O)CCl)cn2)nc(C)c1Cl | 1.5 | 8 | –
21 | Cc1nc(-c2ccc(NC(=O)CCl)cn2)nc(O)c1Cc1ccccc1 | 4 | 10 | –
22 | Cc1nc(-c2ccc(N)cn2)nc(O)c1Cc1ccccc1 | > 30 | – | –
23 | C=CCOc1cc(C(F)(F)F)nc(-c2ccc(NC(=O)CCl)cn2)n1 | 2 | 30 | –
24 | Cc1nc(-c2ccc(NC(=O)CCl)cn2)[nH]c(=O)c1F | 2 | 6 | –
25 | Cc1nc(-c2ccc(N)cn2)nc(O)c1Cl | > 30 | – | –
26 | Nc1ccc(-c2nc(O)cc(C(F)(F)F)n2)nc1 | > 30 | – | –
27 | O=C(CCl)Nc1ccc(-c2nc(O)cc(CCl)n2)nc1 | 1.5 | 5.5 | –
